Test results from publication PMC10457778, “Effects of In Vitro Digestion of Polyphenols from Coffee on Binding Parameters to Human Topoisomerase II α” (Molecules, 2023).
Marks after values point to notes of the source that are not given here.

Assays:
Topoisomerase II α human = biological target: T1, Topoisomerase II α human (Homo sapiens, UniProt P11388); test: Isothermal titration calorimetry (ITC) of interactions with TOPIIα; type: binding; settings: single compounds; for ∆G (kJ/mol) ITC / ∆H (kJ/mol) ITC: 36.6 °C, mean ± SD, n = 6
T1 construct: purchased Sigma Aldrich (St. Louis, MO, USA)
Description: The parameters of interactions of coffee and its components with TOPIIα were carried out using the isothermal titration calorimetry (ITC) (MicroCal PEAQ-ITC 200, Malvern, Worcestershire, UK). Analyses were carried out according to Grzelczyk et al., with some modifications. A calorimeter cell with a capacity of 0.2 mL was filled with 0.1 μmol/L of TOPIIα solution in ultrapure water (deionized, LC-MS grade); the syringe was subsequently filled with titrants as degassed aqueous solutions of chlorogenic acids (CHAs); green, light-, or dark-roasted coffee extracts; coffee fraction; before and after in vitro digestion, at concentrations of 10 mmol/L (coffee extracts at concentrations of 0.1 mmol/L calculated based on 5-caffeoylquinic acid). The measurements were carried out at 36.6 °C with continuous stirring at 307 rpm (10 injections, 25 min). During the ITC analysis, an exothermic or endothermic reaction was recorded, when the binding of compounds to the enzyme occurred. The heat was generated as a consequence of ligand-to-protein binding, which is observed as an energy peak (raw data of heat in […]). The titration of a ligand into water was performed to subtract the energetic effects of dilution. The enthalpy changes (∆H), Gibbs free energy changes (∆G), and entropy changes (∆S) were calculated from the ITC titration nonlinear least squares saturation curve fitting carried out using MicroCal PEAQ-ITC200 software 1.30 [40].

human topoisomerase IIα = test system: human topoisomerase IIα; set-up: method as in PMID 18461976; settings: 100 μM solutions; cited from earlier work
[1] = listed as 4,5-di-O-caffeoylquinic acid

T1 sequence (P11388 whole entry): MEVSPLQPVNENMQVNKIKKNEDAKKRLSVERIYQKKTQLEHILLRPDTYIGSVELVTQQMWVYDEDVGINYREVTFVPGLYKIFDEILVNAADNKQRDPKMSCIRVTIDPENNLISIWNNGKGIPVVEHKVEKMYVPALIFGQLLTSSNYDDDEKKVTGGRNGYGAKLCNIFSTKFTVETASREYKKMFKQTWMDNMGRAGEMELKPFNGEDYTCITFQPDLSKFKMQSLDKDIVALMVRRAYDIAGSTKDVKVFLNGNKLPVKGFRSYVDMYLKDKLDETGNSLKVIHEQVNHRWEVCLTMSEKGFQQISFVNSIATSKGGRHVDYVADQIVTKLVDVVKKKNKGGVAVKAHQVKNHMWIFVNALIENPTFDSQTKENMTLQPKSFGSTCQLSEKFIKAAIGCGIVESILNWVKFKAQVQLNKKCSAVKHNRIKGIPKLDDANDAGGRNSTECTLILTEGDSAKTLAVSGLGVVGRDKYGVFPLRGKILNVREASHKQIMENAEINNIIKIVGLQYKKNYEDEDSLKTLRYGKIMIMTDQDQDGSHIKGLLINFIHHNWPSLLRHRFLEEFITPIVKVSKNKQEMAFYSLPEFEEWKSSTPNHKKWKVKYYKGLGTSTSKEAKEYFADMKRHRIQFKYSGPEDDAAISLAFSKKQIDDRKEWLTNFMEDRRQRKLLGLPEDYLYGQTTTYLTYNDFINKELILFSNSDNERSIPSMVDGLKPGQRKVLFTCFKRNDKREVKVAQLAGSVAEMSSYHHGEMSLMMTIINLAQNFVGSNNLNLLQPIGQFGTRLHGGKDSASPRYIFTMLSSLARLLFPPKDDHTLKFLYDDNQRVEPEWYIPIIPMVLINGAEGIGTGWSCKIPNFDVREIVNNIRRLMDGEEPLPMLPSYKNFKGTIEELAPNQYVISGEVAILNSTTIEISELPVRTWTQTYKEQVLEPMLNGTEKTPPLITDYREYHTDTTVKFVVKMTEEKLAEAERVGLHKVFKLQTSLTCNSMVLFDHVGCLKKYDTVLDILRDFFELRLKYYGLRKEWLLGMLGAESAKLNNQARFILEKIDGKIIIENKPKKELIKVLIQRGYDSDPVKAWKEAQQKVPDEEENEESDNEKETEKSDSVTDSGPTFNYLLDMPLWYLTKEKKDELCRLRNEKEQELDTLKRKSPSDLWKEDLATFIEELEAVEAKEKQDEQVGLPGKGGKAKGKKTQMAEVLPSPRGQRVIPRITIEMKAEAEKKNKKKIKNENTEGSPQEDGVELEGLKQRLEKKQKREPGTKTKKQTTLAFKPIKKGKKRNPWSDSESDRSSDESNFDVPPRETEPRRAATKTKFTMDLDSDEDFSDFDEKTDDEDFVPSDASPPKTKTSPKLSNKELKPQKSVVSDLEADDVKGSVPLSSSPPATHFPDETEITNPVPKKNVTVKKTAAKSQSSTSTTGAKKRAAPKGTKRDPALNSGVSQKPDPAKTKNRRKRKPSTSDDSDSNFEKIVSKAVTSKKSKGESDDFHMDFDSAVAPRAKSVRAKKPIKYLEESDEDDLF

Structure (SMILES) | ∆G (kJ/mol) ITC (Topoisomerase II α human) | ∆H (kJ/mol) ITC (Topoisomerase II α human) | mode of action on human topoisomerase IIα (human topoisomerase IIα) | further results
O=C(C=Cc1ccc(O)c(O)c1)OC1CC(O)(C(=O)O)CC(OC(=O)C=Cc2ccc(O)c(O)c2)C1O (centres unmarked) [3,5-Di-O-caffeoylquinic acid] | −33.87 ± 1.39 ^a kJ/mol | −8.00 ± 0.45 ^c,a kJ/mol | – | –
O=Cc1ccc(CO)o1 [5-(Hydroxymethyl)furfural] | – | – | – | interactions with TOPIIα in ITC measurements (Topoisomerase II α human): did not show significant interactions
C=CC(N)=O [Acrylamide] | – | – | – | interactions with TOPIIα in ITC measurements (Topoisomerase II α human): did not show significant interactions
Cn1c(=O)c2c(ncn2C)n(C)c1=O [Caffeine, reference compound] | −34.50 ± 1.15 ^d kJ/mol | −6.28 ± 0.45 ^e kJ/mol | – | –
O=c1c(O)c(-c2ccc(O)cc2)oc2cc(O)cc(O)c12 [kaempferol] | – | – | redox-dependent poisons rather than the enzyme inhibitors | –
O=c1c(O)c(-c2cc(O)c(O)c(O)c2)oc2cc(O)cc(O)c12 [myricetin] | – | – | redox-dependent poisons rather than the enzyme inhibitors | –
O=c1c(O)c(-c2ccc(O)c(O)c2)oc2cc(O)cc(O)c12 [quercetin] | – | – | redox-dependent poisons rather than the enzyme inhibitors | –

Second part, led by results:

∆G (kJ/mol) ITC (Topoisomerase II α human) | ∆H (kJ/mol) ITC (Topoisomerase II α human) | Structure (SMILES) | mode of action on human topoisomerase IIα (human topoisomerase IIα) | further results
−37.64 ± 1.35 ^c kJ/mol | −1.78 ± 0.15 ^d kJ/mol | O=C(C=Cc1ccc(O)c(O)c1)OC1CC(O)(C(=O)O)CC(O)C1OC(=O)C=Cc1ccc(O)c(O)c1 (centres unmarked) [4,5-Di-O-caffeoylquinic acid] | – | ∆G (kJ/mol) ITC (Topoisomerase II α human; [1]): -37.64 kJ/mol; ∆H (kJ/mol) ITC (Topoisomerase II α human; [1]): -1.78 kJ/mol
−33.54 ± 1.09 ^a kJ/mol | −9.04 ± 0.25 ^a kJ/mol | O=C(O)/C=C/c1ccc(O)c(O)c1 [Caffeic acid] | – | –
−34.42 ± 1.33 ^d kJ/mol | −6.49 ± 0.29 ^e kJ/mol | O=C(O)CCc1ccc(O)c(O)c1 [Dihydrocaffeic acid] | – | –
